The subject of one assay is IKZF2 (Helios). The assay is described as follows: IKZF2 reporter degradation assay (HEK 293T IKZF2-mNeonGreen reporter cell line). In kind it is cell-based, human. As to conditions: 1 μM compound, 24 hour incubation, HEK 293T IKZF2-mNeonGreen reporter. An excerpt: Polycistronic plasmids were constructed for the mammalian expression of fluorescent reporter fusions of human transcription factors IKZF1 (Ikaros), IKZF2 (Helios), and IKZF3 (Aiolos). The respective protein sequences had their C-terminal end joined to a GGGGS linker repeated three times followed by mNeonGreen, P2A sequence, and mScarlet. The DNA sequences of the open reading frames are as follows:
IKZF1, IKZF2, and IKZF3 constructs were cloned into the UCOE Hygromycin expression vectors (Millipore Sigma). Reporter constructs were transfected using cationic lipid reagents into adherent HEK 293T cells and stable integrants were selected by treatment with 200 μg/mL hygromycin B. Clonal populations were obtained from the population of stable integrants either by limiting dilution or fluorescence activated cell sorting.
The clonal stable cell lines were maintained under constant 200 μg/mL hygromycin B selection while being passaged for use in the degradation assays. […] The fluorescence intensity of the IKZF1/2/3-mNeonGreen (FITC channel) and mScarlet (PE channel) reporters were routinely analyzed by flow cytometry to confirm consistent expression levels between experiments.
The IKZF1/IKZF2/IKZF3 degradation assays were carried out by harvesting the HEK 293T reporter cell lines and resuspending the cells in media formulated for reduced background fluorescence (FluoroBrite; Thermo Fisher). The respective cell lines were seeded at a density of 4000 cells/well into black-walled 384-well optical grade assay tissue culture plates. The cells were incubated overnight at 37° C. to allow for attachment to the assay plate. Dilutions of the compounds were prepared in DMSO from 10 mM compound stocks. The assay plates were treated with appropriate concentrations of the compounds by dispensing the DMSO dilutions in quadruplicate wells with an upper limit of 0.5% final DMSO.
After 24 hour incubation with the compounds, the assay plates were imaged on an ImageXpress Pico microscopy system (cells maintained at 37° C. during imaging) to obtain the fluorescent readouts. The assay plates were imaged in the FITC and Tetramethylrhodamine (TRITC) channels to obtain the mNeonGreen fluorescence intensity (reporter degradation data) and mScarlet fluorescence intensity (for cell segmentation). 293T-IKZF1 and 293T-IKZF3 reporter cell lines were imaged with exposures of 500 milliseconds (ms) for both FITC and TRITC channels, while the 293T-IKZF2 reporter cell line was imaged with exposures of 1000 ms for FITC and 1250 ms for TRITC. The resulting data was analyzed with Cell Reporter Xpress software using the 2-channel cell scoring analysis with a “percent positive” readout. The TRITC channel was selected for the “nuclei” segmentation with a threshold of 20 while the FITC channel was selected for the “Marker 1” segmentation and a threshold of 100 for the IKZF1 and IKZF3 reporter lines. […] The minimum segmentation width was set to 6 micrometers and the maximum segmentation width was set to 15 micrometers for all cell lines. The DCs calculations were determined by regression to best fit four-parameter logistic curves using GraphPad Prism.

In assay [1] the target is human E3 ligase component cereblon (CRBN) (Homo sapiens (Human), UniProt Q96SW2). As to the kind of experiment: Cereblon (CRBN) target engagement, NanoBRET TE Intracellular E3 Ligase Assay in transfected HEK-293T cells. As to conditions: read-out: CRBN Binding EC50. The method, then:
HEK293T cells were harvested ca. 75% confluent with trypsin and plated (500,000 cells/well) in a 6-well tissue culture plate in 2 mL of Dulbecco's Modified Eagle Medium (DMEM)+10% Fetal Bovine Serum (FBS) and incubated overnight at 37° C.
The NanoLuc-CRBN fusion vector (Nluc-CRBN; Promega) contains the coding region of human E3 ligase component cereblon (CRBN) fused to the C-terminus of the NanoLuc luciferase coding region. A mixture of 10 ng Nluc-CRBN and 990 ng DDB1 Expression Vector (Promega) was added to 125 μL Opti-Minimum Essential Medium (Opti-MEM™; Thermo Fisher) along with 2 μL P3000 reagent (Thermo Fisher) in a 1.5 mL epppendorf tube. This solution was added to Lipofectamine 3000 transfection reagent (5 μL; Thermo Fisher) in Opti-MEM (125 μL), mixed well, and incubated for 15 minutes at room temperature. The transfection mixture was added dropwise to cells and incubated overnight at 37° ° C., 5% CO2. Following transfection, cells were washed once with PBS, and trypsin (250 μL) was added and incubated 30-45 sec to dislodge cells. Complete media (2 mL) was added to resuspend cells to form a single cell suspension. Cells were centrifuged at 320×g for 5 min at room temperature, the supernatant was removed, and the cell pellet resuspended in Opti-MEM (3 mL; wash step repeated×2). After final resuspension in 5 mL Opti-MEM, cells were counted and resuspended at 200,000 cells/mL in Opti-MEM.
Cereblon target engagement was monitored by Bioluminescence Resonance Energy Transfer (BRET) in transfected HEK-293T cells using the NanoBRET TE Intracellular E3 Ligase Assay (Promega). Briefly, 384-well plates (white opaque plates, Corning 3574, low binding surface) were seeded with transfected HEK-293T cells (38 μL/well). 2 μL of 10 μM CRBN tracer (diluted 1:5 in Tracer Dilution Buffer) was added to each well. Plates were centrifuged at 320×g for 1 min at room temperature. Test compounds were added in a 11-point dilution series (typically 10 μM to […]) using a TECAN D300e Digital Dispenser. Plates were shaken for 2 minutes on a microplate shaker to mix compounds. Plates were centrifuged at 320×g for 1 min at room temperature, and subsequently incubated for 2 hours at 37° C.
After incubation, plates were allowed to cool to room temperature for 15 minutes. 20 μL of 3× Complete NanoBRET™ Nano-Glo® Substrate plus Inhibitor Solution (Promega, 1:166 Substrate and 1:500 dilution of Extracellular NanoLuc® Inhibitor diluted in Opti-MEM) were added to each well. Plates were incubated with shaking at room temperature for 3 minutes covered with foil. Plates were read on a CLARIOstar microplate reader (BMG LabTech), measuring at 450 nm (donor emission) and 610 nm (acceptor emission). The IC50 values were determined by regression to best fit four-parameter logistic curves using GraphPad Prism.

Data on 15 molecules can be found in patent US20240246935A1 (Plexium, Inc., priority 2021, published 2024).

human E3 ligase component cereblon (CRBN), sequence (Q96SW2 whole entry): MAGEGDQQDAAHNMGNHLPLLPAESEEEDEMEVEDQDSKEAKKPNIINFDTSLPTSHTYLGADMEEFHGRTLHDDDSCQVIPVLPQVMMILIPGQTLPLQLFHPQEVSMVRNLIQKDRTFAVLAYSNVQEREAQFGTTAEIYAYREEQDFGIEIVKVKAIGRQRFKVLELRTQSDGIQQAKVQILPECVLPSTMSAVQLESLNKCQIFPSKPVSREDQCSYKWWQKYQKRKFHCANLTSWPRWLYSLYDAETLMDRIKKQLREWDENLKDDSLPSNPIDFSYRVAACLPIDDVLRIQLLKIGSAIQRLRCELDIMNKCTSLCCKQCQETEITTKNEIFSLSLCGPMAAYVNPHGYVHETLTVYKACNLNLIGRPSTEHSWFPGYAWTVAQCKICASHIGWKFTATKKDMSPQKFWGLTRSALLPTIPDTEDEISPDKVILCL
human E3 ligase component cereblon (CRBN), sequence (Q16531 whole entry partner): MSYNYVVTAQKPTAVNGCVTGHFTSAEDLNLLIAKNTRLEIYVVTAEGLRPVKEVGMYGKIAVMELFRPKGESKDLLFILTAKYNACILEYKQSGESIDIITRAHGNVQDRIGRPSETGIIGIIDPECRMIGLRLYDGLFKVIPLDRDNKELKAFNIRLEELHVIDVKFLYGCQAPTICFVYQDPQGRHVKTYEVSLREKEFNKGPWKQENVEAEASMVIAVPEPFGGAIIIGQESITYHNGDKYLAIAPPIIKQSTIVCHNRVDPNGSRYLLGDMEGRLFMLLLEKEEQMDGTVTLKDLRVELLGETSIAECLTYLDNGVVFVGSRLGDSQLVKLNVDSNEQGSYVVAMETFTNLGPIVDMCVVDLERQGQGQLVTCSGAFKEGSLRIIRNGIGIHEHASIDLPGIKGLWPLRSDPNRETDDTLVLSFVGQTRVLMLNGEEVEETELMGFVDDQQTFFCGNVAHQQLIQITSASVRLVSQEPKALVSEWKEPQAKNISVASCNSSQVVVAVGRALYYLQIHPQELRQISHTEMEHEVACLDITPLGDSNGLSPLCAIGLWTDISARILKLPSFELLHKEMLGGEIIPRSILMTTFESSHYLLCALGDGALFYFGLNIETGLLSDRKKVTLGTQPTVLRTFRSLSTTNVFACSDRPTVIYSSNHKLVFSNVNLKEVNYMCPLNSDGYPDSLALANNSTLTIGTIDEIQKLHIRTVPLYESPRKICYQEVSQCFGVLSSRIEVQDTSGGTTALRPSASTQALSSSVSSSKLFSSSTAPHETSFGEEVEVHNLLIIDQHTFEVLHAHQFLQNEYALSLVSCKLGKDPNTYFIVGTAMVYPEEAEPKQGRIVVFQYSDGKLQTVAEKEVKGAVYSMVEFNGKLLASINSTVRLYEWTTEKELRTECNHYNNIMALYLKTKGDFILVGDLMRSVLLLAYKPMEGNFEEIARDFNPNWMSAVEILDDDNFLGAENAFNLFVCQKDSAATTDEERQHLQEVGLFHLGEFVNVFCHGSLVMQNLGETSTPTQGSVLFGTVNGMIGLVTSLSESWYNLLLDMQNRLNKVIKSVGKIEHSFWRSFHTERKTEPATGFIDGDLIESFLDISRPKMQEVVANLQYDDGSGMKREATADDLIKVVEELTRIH

For orientation: EC50 means the concentration giving half of the maximal effect. As to `O=C1CCC(N2Cc3cc(O[C@H]4CCCC[C@@H]4N4CC(c5ccc(OC(F)(F)F)cc5)C4)ccc3C2=O)C(=O)N1` (mixture of isomers) [Compound 60, Rac-3-(1-oxo-5-(((trans)-2-(3-(4-(trifluoromethoxy)phenyl)azetidin-1-yl)cyclohexyl)oxy)isoindolin-2-yl)piperidine-2,6-dione], the “IKZF2 % Degradation @ 1 μM” value in the assay on IKZF2 (Helios) worked out at 84.9%. The EC50 in assay [1] was 15 nM. The corresponding values for `O=C1CCC(N2Cc3cc(O[C@@H]4CCCC[C@@H]4N4CC(c5ccc(OC(F)(F)F)cc5)C4)ccc3C2=O)C(=O)N1` (mixture of isomers) [Compound 61, Rac-3-(1-oxo-5-(((cis)-2-(3-(4-(trifluoromethoxy)phenyl)azetidin-1-yl)cyclohexyl)oxy)isoindolin-2-yl)piperidine-2,6-dione] are 36.3% and 14 nM. The corresponding values for `O=C1CCC(N2Cc3cc(O[C@H]4CCCC[C@@H]4N4CC(c5cccc(C(F)(F)F)c5)C4)ccc3C2=O)C(=O)N1` (mixture of isomers) [Compound 62, Rac-3-(1-oxo-5-(((trans)-2-(3-(3-(trifluoromethyl)phenyl)azetidin-1-yl)cyclohexyl)oxy)isoindolin-2-yl)piperidine-2,6-dione] are 87.5% and 46 nM. The corresponding values for `O=C1CCC(N2Cc3cc(O[C@H]4CCCC[C@H]4N4CC(c5cccc(C(F)(F)F)c5)C4)ccc3C2=O)C(=O)N1` (mixture of isomers) [Compound 63, Rac-3-(1-oxo-5-(((cis)-2-(3-(3-(trifluoromethyl)phenyl)azetidin-1-yl)cyclohexyl)oxy)isoindolin-2-yl)piperidine-2,6-dione] are 44.9% and 15 nM. As to `N#Cc1cc(F)ccc1C1CN([C@@H]2CCC[C@H]2Oc2ccc3c(c2)CN(C24CC(C2)C(=O)NC4=O)C3=O)C1` (racemic) [Compound 71, Rac-2-(1-((trans)-2-((2-(2,4-dioxo-3-azabicyclo[3.1.1]heptan-1-yl)-1-oxoisoindolin-5-yl)oxy)cyclopentyl)azetidin-3-yl)-5-fluorobenzonitrile], the “IKZF2 % Degradation @ 1 μM” value in the assay on IKZF2 (Helios) was less than 15%. For the same molecule, in assay [1], the EC50 was 37 nM. For the molecule `N#Cc1ccc(C2CN([C@H]3CCCC[C@@H]3Oc3ccc4c(c3)CN(C3CCC(=O)NC3=O)C4=O)C2)c(Cl)c1` (mixture of isomers) [Compound 74, Rac-3-chloro-4-(1-((trans)-2-((2-(2,6-dioxopiperidin-3-yl)-1-oxoisoindolin-5-yl)oxy)cyclohexyl)azetidin-3-yl)benzonitrile], the “IKZF2 % Degradation @ 1 μM” value in the assay on IKZF2 (Helios) turned out to be 63%. In addition, in assay [1], the EC50 was 20 nM.

For the molecule `N#Cc1ccc(C2CN([C@@H]3CCCC[C@@H]3Oc3ccc4c(c3)CN(C3CCC(=O)NC3=O)C4=O)C2)c(Cl)c1` (mixture of isomers) [Compound 75, Rac-3-chloro-4-(1-((cis)-2-((2-(2,6-dioxopiperidin-3-yl)-1-oxoisoindolin-5-yl)oxy)cyclohexyl)azetidin-3-yl)benzonitrile], in the assay on IKZF2 (Helios), the “IKZF2 % Degradation @ 1 μM” value was determined as 36.8%. The EC50 in assay [1] was found to be 12 nM. The corresponding values for `N#Cc1cccc(C2CN([C@H]3CCCC[C@H]3Oc3ccc4c(c3)CN(C3CCC(=O)NC3=O)C4=O)C2)c1` (mixture of isomers) [Compound 76, Rac-3-(1-((cis)-2-((2-(2,6-dioxopiperidin-3-yl)-1-oxoisoindolin-5-yl)oxy)cyclohexyl)azetidin-3-yl)benzonitrile] are 73.7% and 22 nM. Take `N#Cc1ccccc1C1CN([C@H]2CCCC[C@H]2Oc2ccc3c(c2)CN(C24CC(C2)C(=O)NC4=O)C3=O)C1` (racemic) [Compound 94, Rac-2-(1-((cis)-2-((2-(2,4-dioxo-3-azabicyclo[3.1.1]heptan-1-yl)-1-oxoisoindolin-5-yl)oxy)cyclohexyl)azetidin-3-yl)benzonitrile]: the EC50 in assay [1] was greater than 10000 nM.

In the case of `N#Cc1ccccc1C1CN([C@H]2CCCC[C@@H]2Oc2ccc3c(c2)CN(C24CC(C2)C(=O)NC4=O)C3=O)C1` (racemic) [Compound 95, Rac-2-(1-((trans)-2-((2-(2,4-dioxo-3-azabicyclo[3.1.1]heptan-1-yl)-1-oxoisoindolin-5-yl)oxy)cyclohexyl)azetidin-3-yl)benzonitrile], the EC50 in assay [1] was greater than 10000 nM.

Regarding `N#Cc1cc(F)ccc1C1CN([C@H]2CCCC[C@H]2Oc2ccc3c(c2)CN(C2CCC(=O)NC2=O)C3=O)C1` (mixture of isomers) [Compound 102, Rac-2-(1-((cis)-2-((2-(2,6-dioxopiperidin-3-yl)-1-oxoisoindolin-5-yl)oxy)cyclohexyl)azetidin-3-yl)-5-fluorobenzonitrile], the EC50 in assay [1] was 24 nM. Same read-out and setting: the same measure for `O=C1NC(=O)C2(N3Cc4cc(O[C@H]5CCC[C@@H]5N5CC(c6ccccc6Cl)C5)ccc4C3=O)CC1C2` [Compound 82, 1-(5-(((1S,2S)-2-(3-(2-chlorophenyl)azetidin-1-yl)cyclopentyl)oxy)-1-oxoisoindolin-2-yl)-3-azabicyclo[3.1.1]heptane-2,4-dione]: 921 nM. In the case of `O=C1NC(=O)C2(N3Cc4cc(O[C@H]5CCCC[C@@H]5N5CC(c6ccc(F)cc6Cl)C5)ccc4C3=O)CC1C2` [Compound 85, 1-(5-(((1S,2S)-2-(3-(2-chloro-4-fluorophenyl)azetidin-1-yl)cyclohexyl)oxy)-1-oxoisoindolin-2-yl)-3-azabicyclo[3.1.1]heptane-2,4-dione], the EC50 in assay [1] was greater than 10000 nM. The same measure, in the same setting: in the case of `O=C1NC(=O)C2(N3Cc4cc(O[C@H]5CCC[C@@H]5N5CC(c6ccccc6)C5)ccc4C3=O)CC1C2` [Compound 105, 1-(1-oxo-5-(((1S,2S)-2-(3-phenylazetidin-1-yl)cyclopentyl)oxy)isoindolin-2-yl)-3-azabicyclo[3.1.1]heptane-2,4-dione] it was greater than 10000 nM; in that of `O=C1NC(=O)C2(N3Cc4cc(O[C@H]5CCCC[C@@H]5N5CCC(c6ccccc6)C5)ccc4C3=O)CC1C2` (stereo partly drawn) [Compound 106, 1-(1-oxo-5-(((1S,2S)-2-(3-phenylpyrrolidin-1-yl)cyclohexyl)oxy)isoindolin-2-yl)-3-azabicyclo[3.1.1]heptane-2,4-dione], greater than 10000 nM.
